One data set concerns the target human D2 receptor (Homo sapiens (Human), UniProt P14416). Put plainly: Radioligand binding ([3H]-spiperone) to cloned receptors expressed in HEK-293 EBNA cells. To be noted: HEK293 EBNA cell membranes expressing human D2. The procedure: (§1) HEK293 EBNA cells were transiently transfected with expression plasmids encoding for the human D2 or D3 or for the human 5-HT2A receptor, respectively. The cells were harvested 48 h post-transfection, washed three times with cold PBS and stored at −80° C. prior to use. The pellet was suspended in cold 50 mM Tris-HCl buffer comprising 10 mM EDTA (pH 7.4) and was homogenized with a Polytron (Kinematica AG, Basel, Switzerland) for 20-30 sec at 12.000 rpm. After centrifugation at 48.000×g for 30 min at 4° C., the pellet was resuspended in cold 10 mM Tris-HCl buffer comprising 0.1 mM EDTA (pH 7.4), homogenized, and centrifuged as above. This pellet was further resuspended in a smaller volume of ice cold 10 mM Tris-HCl buffer comprising 0.1 mM EDTA (pH 7.4) and homogenized with a Polytron for 20-30 sec at 12.000 rpm. The protein content of this homogenate was determined with the Bio-Rad (Bradford) Protein Assay (Biorad Laboratories GmbH, München, Germany) according to the instructions of the manufacturer using gamma globulin as the standard. This homogenate was stored at −80° C. in aliquots and thawed immediately prior to use.
(§2) Aliquots of membrane preparations were thawed at RT, resupended in assay buffer (D2, D3: 50 mM Tris-HCl, 120 mM NaCl, 5 mM MgCl2, 1 mM EDTA, 5 mM KCl, 1.5 mM CaCl2, pH=7.4; 5-HT2A: 50 mM Tris-HCl, 10 mM MgCl2, 1 mM EGTA, pH=7.4), homogenized with a Polytron for 20-30 sec at 12.000 rpm and adjusted to a final concentration of approximately 7.5 μg protein/well (D2, D3) and 15 μg protein/well (5-HT2A), respectively.
(§3) The binding affinity (Ki) of the compounds was determined using radioligand binding. Membranes were incubated in a total volume of 200 μl with a fixed concentration of radioligand (final concentration approximately 0.7 nM [^3H]-spiperone for D2, 0.5 nM [^3H]-spiperone for D3, and 1.1 nM [^3H]-ketanserin for 5-HT2A) and ten concentrations of test compound in ranging between 10 μM-0.1 nM for 1 h at RT. At the end of the incubation, the reaction mixtures were filtered on to unifilter 96-well white microplates with bonded GF/C filters (Packard BioScience, Zürich, Switzerland; preincubated for 1 h in 0.1% polyethylenimine (PEI) in assay buffer) with a Filtermate 196 harvester (Packard BioScience) and washed 3 times with cold assay buffer. The nonspecific binding was determined with equally composed reaction mixtures in the presence of 10 μM unlabelled spiperone. Per well 45 μl of Microscint 40 (Perkin Elmer, Schwerzenbach, Switzerland) was added, plates for sealed, shaken for 20 min and counted for 3 min on a Topcount Microplate Scintillation Counter (Can berra Packard SA, Zürich, Switzerland) with quenching correction.
(§4) The CPM value for each duplicate of a concentration of competing compound was averaged (y1), then the % specific binding was calculated according to the equation (((y1−non-specific)/(total binding−non-specific))×100). Graphs were plotted with the % specific binding using XLfit, a curve fitting program that iteratively plots the data using Levenberg-Marquardt algorithm. The single site competition analysis equation used was y=A+((B−A)/(1+((x/C)D))), where y is the % specific binding, A is the minimum y, B is the maximum y, C is the IC50, x is the log 10 of the concentration of the competing compound and D is the slope of the curve (the Hill Coefficient). […] The affinity constant (Ki) was calculated using the Cheng-Prusoff equation Ki=(IC50/1+([L]/Kd), where [L] is the concentration of radioligand and Kd is the dissociation constant of the radioligand at the receptor as determined by the saturation isotherm.

In another data set the target is human D3 receptor (Homo sapiens (Human), UniProt P35462). The data set is described as above. Conditions: HEK293 EBNA cell membranes expressing human D3. The procedure: as §1, §2, §3, §4
In another data set the target is human 5-HT2A receptor (Homo sapiens (Human), UniProt P28223). Put plainly: Radioligand binding ([3H]-ketanserin) to cloned receptors expressed in HEK-293 EBNA cells. Conditions: HEK293 EBNA cell membranes expressing human 5-HT2A. The procedure: as §1, §2, §3, §4

We go through 18 compounds from patent US8877778B2, “Benzofurane compounds” (Hoffmann-La Roche Inc., priority 2010, dated 2014).

human 5-HT2A receptor, sequence (P28223 whole entry): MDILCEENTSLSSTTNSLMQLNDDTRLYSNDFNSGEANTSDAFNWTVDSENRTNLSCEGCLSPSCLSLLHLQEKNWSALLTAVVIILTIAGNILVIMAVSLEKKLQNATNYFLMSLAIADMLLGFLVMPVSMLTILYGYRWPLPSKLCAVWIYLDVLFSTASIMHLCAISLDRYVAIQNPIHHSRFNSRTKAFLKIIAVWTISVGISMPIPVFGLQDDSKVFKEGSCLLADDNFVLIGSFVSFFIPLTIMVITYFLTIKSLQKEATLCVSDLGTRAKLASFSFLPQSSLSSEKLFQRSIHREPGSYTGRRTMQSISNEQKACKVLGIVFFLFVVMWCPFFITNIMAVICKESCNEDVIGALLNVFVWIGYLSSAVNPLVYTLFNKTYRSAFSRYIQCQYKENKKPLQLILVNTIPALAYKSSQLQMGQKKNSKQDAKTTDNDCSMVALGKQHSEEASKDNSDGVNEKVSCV
human D2 receptor, sequence (P14416 whole entry): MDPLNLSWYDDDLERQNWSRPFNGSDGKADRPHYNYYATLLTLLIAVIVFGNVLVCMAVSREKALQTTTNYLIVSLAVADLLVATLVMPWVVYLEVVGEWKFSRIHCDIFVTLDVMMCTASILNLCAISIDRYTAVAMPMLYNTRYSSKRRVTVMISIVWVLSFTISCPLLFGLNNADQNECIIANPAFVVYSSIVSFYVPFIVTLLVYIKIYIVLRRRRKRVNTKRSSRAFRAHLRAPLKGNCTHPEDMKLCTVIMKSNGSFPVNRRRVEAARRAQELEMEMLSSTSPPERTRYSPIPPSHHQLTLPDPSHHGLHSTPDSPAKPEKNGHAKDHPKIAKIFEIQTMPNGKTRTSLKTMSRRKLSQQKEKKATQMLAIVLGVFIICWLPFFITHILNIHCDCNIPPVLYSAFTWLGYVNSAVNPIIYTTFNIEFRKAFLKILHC
human D3 receptor, sequence (P35462 whole entry): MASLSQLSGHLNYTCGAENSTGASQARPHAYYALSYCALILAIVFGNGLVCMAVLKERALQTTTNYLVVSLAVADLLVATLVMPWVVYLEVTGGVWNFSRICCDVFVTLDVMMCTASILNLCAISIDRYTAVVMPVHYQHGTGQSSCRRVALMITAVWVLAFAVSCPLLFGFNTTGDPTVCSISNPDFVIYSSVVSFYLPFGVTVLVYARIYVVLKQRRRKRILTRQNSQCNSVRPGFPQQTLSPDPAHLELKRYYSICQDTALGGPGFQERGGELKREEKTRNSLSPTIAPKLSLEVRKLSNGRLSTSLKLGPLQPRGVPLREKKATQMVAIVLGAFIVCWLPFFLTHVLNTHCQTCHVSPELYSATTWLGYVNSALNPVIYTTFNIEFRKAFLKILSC

On to `O=C(N[C@H]1CC[C@H](CCN2CCC(c3cccc4c3CCO4)CC2)CC1)C(O)C(F)(F)F` (mixture of isomers) [Example 37, trans-(RS)—N-(4-{2-[4-(2,3-Dihydro-benzofuran-4-yl)-piperidin-1-yl]-ethyl}-cyclohexyl)-3,3,3-trifluoro-2-hydroxy-propionamide], for which the melting point was 179 °C. For the same compound, at human D2 receptor, the Ki was 0.241 µM. Besides, the Ki at human D3 receptor turned out to be 0.0092 µM.
With `O=C(N[C@H]1CC[C@H](CCN2CCC(c3cccc4c3CCO4)CC2)CC1)C1CCOC1` (mixture of isomers) [Example 52, (RS)-Tetrahydro-furan-3-carboxylic acid trans-(4-{2-[4-(2,3-dihydro-benzofuran-4-yl)-piperidin-1-yl]-ethyl}-cyclohexyl)-amide], the melting point is 211 °C. Moreover, the Ki on human D2 receptor is 0.135 µM. Further, the Ki at human D3 receptor was determined as 0.0055 µM. The Ki on human 5-HT2A receptor was determined as 0.0246 µM.
For `CC(=O)N[C@H]1CC[C@H](CCN2CCC(c3cccc4occc34)CC2)CC1` [Example 1, trans-N-{4-[2-(4-Benzofuran-4-yl-piperidin-1-yl)-ethyl]-cyclohexyl}-acetamide], the melting point is 167 °C. In addition, the Ki at human D2 receptor amounted to 0.187 µM. Further, the Ki at human D3 receptor came to 0.0029 µM. Moreover, the Ki at human 5-HT2A receptor was 0.0068 µM.
For `COCCC(=O)N[C@H]1CC[C@H](CCN2CCC(c3cccc4occc34)CC2)CC1` [Example 2, trans-N-{4-[2-(4-Benzofuran-4-yl-piperidin-1-yl)-ethyl]-cyclohexyl}-3-methoxy-propionamide], in that order: 154 °C, 0.288 µM, 0.0031 µM and 0.0071 µM.
For `O=C(N[C@H]1CC[C@H](CCN2CCC(c3cccc4occc34)CC2)CC1)C1CCOCC1` [Example 3, Tetrahydro-pyran-4-carboxylic acid trans-{4-[2-(4-benzofuran-4-yl-piperidin-1-yl)-ethyl]-cyclohexyl}-amide], in that order: 217 °C, 0.305 µM, 0.0119 µM and 0.0022 µM.
On the same counts, the results for `O=C(CC1CCOCC1)N[C@H]1CC[C@H](CCN2CCC(c3cccc4occc34)CC2)CC1` [Example 4, trans-N-{4-[2-(4-Benzofuran-4-yl-piperidin-1-yl)-ethyl]-cyclohexyl}-2-(tetrahydro-pyran-4-yl)-acetamide] are 181 °C, 0.219 µM, 0.0057 µM and 0.009 µM.
Consider `CC(=O)N[C@H]1CC[C@H](CCN2CCC(c3cccc4c3CCO4)CC2)CC1` [Example 5, trans-N-(4-{2-[4-(2,3-Dihydro-benzofuran-4-yl)-piperidin-1-yl]-ethyl}-cyclohexyl)-acetamide], for which the melting point turned out to be 183 °C. In addition, the Ki on human D2 receptor was determined as 0.298 µM. Also, the Ki on human D3 receptor worked out at 0.006 µM. For the same compound, on human 5-HT2A receptor, the Ki was 0.0372 µM.
Turning to `COCCC(=O)N[C@H]1CC[C@H](CCN2CCC(c3cccc4c3CCO4)CC2)CC1` [Example 6, trans-N-(4-{2-[4-(2,3-Dihydro-benzofuran-4-yl)-piperidin-1-yl]-ethyl}-cyclohexyl)-3-methoxy-propionamide], the melting point worked out at 182 °C. In addition, at human D2 receptor, the inhibition constant Ki stood at 0.509 µM. Besides, the Ki at human D3 receptor came to 0.0066 µM. The Ki on human 5-HT2A receptor was found to be 0.0387 µM.
For `O=C(N[C@H]1CC[C@H](CCN2CCC(c3cccc4c3CCO4)CC2)CC1)C1CCOCC1` [Example 7, Tetrahydro-pyran-4-carboxylic acid trans-(4-{2-[4-(2,3-dihydro-benzofuran-4-yl)-piperidin-1-yl]-ethyl}-cyclohexyl)-amide], in that order: 227 °C, 0.716 µM, 0.0228 µM and 0.0128 µM.
On the same counts, the results for `O=C(CC1CCOCC1)N[C@H]1CC[C@H](CCN2CCC(c3cccc4c3CCO4)CC2)CC1` [Example 8, trans-N-(4-{2-[4-(2,3-Dihydro-benzofuran-4-yl)-piperidin-1-yl]-ethyl}-cyclohexyl)-2-(tetrahydro-pyran-4-yl)-acetamide] are 191 °C, 0.65 µM, 0.0104 µM and 0.0386 µM.
On the same counts, the results for `CCC(=O)N[C@H]1CC[C@H](CCN2CCC(c3cccc4occc34)CC2)CC1` [Example 9, trans-N-{4-[2-(4-Benzofuran-4-yl-piperidin-1-yl)-ethyl]-cyclohexyl}-propionamide] are 170 °C, 0.0919 µM, 0.0022 µM and 0.0056 µM.
In the case of `COCC(=O)N[C@H]1CC[C@H](CCN2CCC(c3cccc4occc34)CC2)CC1` [Example 10, trans-N-{4-[2-(4-Benzofuran-4-yl-piperidin-1-yl)-ethyl]-cyclohexyl}-2-methoxy-acetamide], the melting point turned out to be 124 °C. In addition, at human D2 receptor, the Ki amounted to 0.256 µM. Also, the Ki at human D3 receptor was determined as 0.0105 µM. Besides, the Ki on human 5-HT2A receptor was 0.0042 µM.
For `CS(=O)(=O)CC(=O)N[C@H]1CC[C@H](CCN2CCC(c3cccc4occc34)CC2)CC1` [Example 11, trans-N-{4-[2-(4-Benzofuran-4-yl-piperidin-1-yl)-ethyl]-cyclohexyl}-2-methanesulfonyl-acetamide], in that order: 201 °C, 0.154 µM, 0.0023 µM and 0.0053 µM.
On the same counts, the results for `CCC(=O)N[C@H]1CC[C@H](CCN2CCC(c3cccc4c3CCO4)CC2)CC1` [Example 13, trans-N-(4-{2-[4-(2,3-Dihydro-benzofuran-4-yl)-piperidin-1-yl]-ethyl}-cyclohexyl)-propionamide] are 192 °C, 0.346 µM, 0.0046 µM and 0.0343 µM.
For `COCC(=O)N[C@H]1CC[C@H](CCN2CCC(c3cccc4c3CCO4)CC2)CC1` [Example 14, trans-N-(4-{2-[4-(2,3-Dihydro-benzofuran-4-yl)-piperidin-1-yl]-ethyl}-cyclohexyl)-2-methoxy-acetamide], in that order: 156 °C, 0.671 µM, 0.0227 µM and 0.0277 µM.
`CS(=O)(=O)CC(=O)N[C@H]1CC[C@H](CCN2CCC(c3cccc4c3CCO4)CC2)CC1` [Example 15, trans-N-(4-{2-[4-(2,3-Dihydro-benzofuran-4-yl)-piperidin-1-yl]-ethyl}-cyclohexyl)-2-methanesulfonyl-acetamide]: the melting point was found to be 211 °C. Further, on human D2 receptor, the Ki is 0.419 µM. Moreover, the Ki at human D3 receptor worked out at 0.0049 µM. At human 5-HT2A receptor, the Ki worked out at 0.0359 µM.
Consider `O=C(N[C@H]1CC[C@H](CCN2CCC(c3cccc4c3CCO4)CC2)CC1)c1ccccc1` [Example 17, trans-N-(4-{2-[4-(2,3-Dihydro-benzofuran-4-yl)-piperidin-1-yl]-ethyl}-cyclohexyl)-benzamide], for which the melting point worked out at 220 °C. Further, the Ki at human D2 receptor came out at 0.319 µM. Besides, the Ki at human D3 receptor stood at 0.0042 µM. Moreover, the Ki at human 5-HT2A receptor is 0.0114 µM.
For `O=C(N[C@H]1CC[C@H](CCN2CCC(c3cccc4c3CCO4)CC2)CC1)C1(O)CCC1` [Example 39, 1-Hydroxy-cyclobutanecarboxylic acid trans-(4-{2-[4-(2,3-dihydro-benzofuran-4-yl)-piperidin-1-yl]-ethyl}-cyclohexyl)-amide], the Ki on human D2 receptor worked out at 0.305 µM; on human D3 receptor, 0.0273 µM; on human 5-HT2A receptor it was 0.0123 µM.

The term melting point denotes the temperature of the solid-liquid transition. Broadly, the Ki is a dissociation constant, usually derived from enzyme kinetics or from competition with a known ligand.
